Publication PMC9301969 (ACS Omega, 2022)

Target: human serum albumin (HSA, nonglycated) (Homo sapiens, UniProt P02768)
Assay: fluorescence polarization
Type: binding

Sequence of human serum albumin (HSA, nonglycated) (P02768 25-609): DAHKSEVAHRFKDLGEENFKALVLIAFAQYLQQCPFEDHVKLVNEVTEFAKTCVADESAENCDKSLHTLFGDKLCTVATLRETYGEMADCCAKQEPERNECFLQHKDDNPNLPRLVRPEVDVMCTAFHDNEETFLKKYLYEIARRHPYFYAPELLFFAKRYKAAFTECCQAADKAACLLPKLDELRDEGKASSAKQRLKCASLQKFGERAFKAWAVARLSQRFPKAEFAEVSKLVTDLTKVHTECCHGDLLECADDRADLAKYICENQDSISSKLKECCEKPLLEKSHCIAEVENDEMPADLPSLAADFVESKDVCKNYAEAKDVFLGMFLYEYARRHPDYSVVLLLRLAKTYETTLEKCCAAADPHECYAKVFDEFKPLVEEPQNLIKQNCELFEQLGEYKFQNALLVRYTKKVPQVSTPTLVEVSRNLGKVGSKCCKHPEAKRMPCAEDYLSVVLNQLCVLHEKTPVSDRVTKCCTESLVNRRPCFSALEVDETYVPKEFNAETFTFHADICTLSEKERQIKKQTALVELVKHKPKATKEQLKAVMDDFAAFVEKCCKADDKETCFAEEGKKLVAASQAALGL

Question: `O=C(O)CCN(Cc1ccc(C(F)(F)F)cc1B(O)O)Cc1c2ccccc2c(CN(CCC(=O)O)Cc2ccc(C(F)(F)F)cc2B(O)O)c2ccccc12` [compound 8, 3,3′-((anthracene-9,10-diylbis(methylene))bis((2-borono-4-(trifluoromethyl)benzyl)azanediyl))dipropionic acid] was tested. Which Kd did it give?
Answer: The Kd was 2000 nM.
